Reference: patent US20250089720A1, “FUNGICIDAL MIXTURES COMPRISING COMBINATION CONTAINING PHTHALIMIDE” (Adama Makhteshim Ltd., priority 2022, published 2025)

Experiments:
[1] = system: Ramularia (Ramularia collo-cygni) in barley; assay: fungicidal activity toward Ramularia in barley, protected conditions; assay type: in vivo
Excerpt: The following fungicides and combination of fungicides are applied to ramularia in barley. The observation was made 10 days after application. The results are shown below: The following fungicides and combination of fungicides are applied to ramularia in barley. The observation was made 24 days after application.

[2] = system: Septoria Tritici Blotch (STB) (Zymoseptoria tritici); assay: glasshouse fungicidal efficacy against Septoria Tritici Blotch on winter wheat; conditions: Abbott's transformation
Description: The study design was a randomized complete block with 4 replicates.
The treatments were applied in accordance with Table 14, and on the day after application, artificial inoculation of the target was performed by spraying the inoculum solution at the concentration of 1×10^6 cfu/ml on the leaves. The compositions were diluted in a water volume equivalent to 400 L/ha.
Analysis of Variance (ANOVA) and a Bartlett test to assume the homogeneity of the treatment variances were performed on each assessment. Data were analyzed using ANOVA.
Evaluations were performed on incidence and severity of Septoria on leaves and transformed into percentage of disease control using the Abbott's transformation.

Cc1ccc(S(=O)(=O)n2cc(F)c(=N)n(C)c2=O)cc1 [ADF-16]
Observed Efficacy ([1]; ADF-16 25 g a.i./ha, 10 days after application): 45.70% | Observed Efficacy ([1]; ADF-16 25 g a.i./ha, 24 days after application): 44.50% | Observed Efficacy ([1]; ADF-16 35 g a.i./ha, 10 days after application): 55.00% | Observed Efficacy ([1]; ADF-16 35 g a.i./ha, 24 days after application): 45.60%

O=C1c2ccccc2C(=O)N1SC(Cl)(Cl)Cl [Folpet, folpet]
Observed Efficacy ([1]; Folpet 175 g a.i./ha, 10 days after application): 25.10% | Observed Efficacy ([1]; Folpet 175 g a.i./ha, 24 days after application): 21.60% | Observed Efficacy ([1]; Folpet 300 g a.i./ha, 10 days after application): 61.10% | Observed Efficacy ([1]; Folpet 300 g a.i./ha, 24 days after application): 31.00% | Observed Efficacy ([1]; Folpet 400 g a.i./ha, 10 days after application): 64.80% | Observed Efficacy ([1]; Folpet 400 g a.i./ha, 24 days after application): 49.80% | Disease control on severity on leaves ([2]; Folpet 500 g AI/ha): 41.6%

CC(O)(Cn1cncn1)c1ccc(Oc2ccc(Cl)cc2)cc1C(F)(F)F (stereo not drawn) [Mefentrifluconazole]
Disease control on severity on leaves ([2]; Mefentrifluconazole 100 g AI/ha): 49.9%
